# Patent publication US20220380347A1, “INHIBITORS OF CYSTEINE PROTEASES AND METHODS OF USE THEREOF” (Pardes Biosciences, Inc., priority 2020, published 2022)
# Where two headings read alike, the source gives them in different places.
# Experiments:
# [1] = target: COVID-19 (nCoV-2019, SARS-CoV2) Mpro (Severe acute respiratory syndrome coronavirus 2, UniProt P0DTD1); assay: COVID-19 (nCoV-2019, SARS-CoV2) Mpro enzymatic assay; type: biochemical; details: 25 nM Mpro, 25 μM substrate; read-out: COVID-19 Mpro IC50
# 229E Mpro = 229E Mpro (Human coronavirus 229E, UniProt P0C6X1); assay: 229E Mpro enzymatic assay (standard methods, SARS-CoV2 Mpro assay given as exemplary); type: biochemical, human coronavirus (HCov) 229E
# Method: Compounds were assayed using standard methods to assess compound activity and IC50. As an exemplary for assessment of the SARS-COV2 Mpro, the C-His6-tagged Mpro (NC_045512) was cloned, expressed in E. coli and purified. The assay buffer contained 20 mM of Tris-HCl (pH 7.3), 100 mM of NaCl, 1 mM of EDTA, 5 mM of TCEP and 0.1% BSA. The final concentrations of the Mpro protein and substrate were 25 nM and 25 μM, respectively, in the Mpro enzymatic assay. The Km of the Mpro substrate for the protease was 13.5 μM.
# The compounds were added to an assay plate. […] For no inhibition control (ZPE, zero percent effect), no compound was added.
# IC50 values of compounds were calculated with the GraphPad Prism software using the nonlinear regression model of log(inhibitor) vs. response—Variable slope (four parameters). The inhibition activity was calculated using the formula below, IC50 values is calculated using the Inhibition % data.
# Inhibition %=[(Sample-Average ZPE)/(Average HPE-Average ZPE)]*100%^#
# 229E Mpro, sequence (P0C6X1 2966-3267): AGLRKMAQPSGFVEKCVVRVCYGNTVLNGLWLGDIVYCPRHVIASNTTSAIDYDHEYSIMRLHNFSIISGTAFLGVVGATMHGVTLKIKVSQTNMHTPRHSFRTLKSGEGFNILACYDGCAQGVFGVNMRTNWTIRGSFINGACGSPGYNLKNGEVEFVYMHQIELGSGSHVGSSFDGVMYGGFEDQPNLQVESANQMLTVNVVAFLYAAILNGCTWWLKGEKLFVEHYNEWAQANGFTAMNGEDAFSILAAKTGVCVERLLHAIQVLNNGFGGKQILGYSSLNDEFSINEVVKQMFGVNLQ
smiles,measurement,setting,value
"CC(C)(C)c1ccc(N(C(=O)c2cnc[nH]2)C(C(=O)NC2CCCCC2)c2cncnc2)cc1 (stereo not shown) [Compound 104, N-(4-tert-butylphenyl)-N-[2-(cyclohexylamino)-2-oxo-1-pyrimidin-5-yl-ethyl]-1H-imidazole-5-carboxamide]",IC50,[1],2 to 10 µM
CC(C)(C)c1ccc(N(C(=O)c2cnc[nH]2)C(C(=O)NC2CCCCC2)c2ncc(Cl)nc2C#N)cc1 (stereo not shown) [Compound 110],IC50,[1],> 30 µM
same,EC50,229E Mpro; 229E Mpro EC50,> 30 µM
"CC(C)(C)c1ccc(N(C(=O)c2nsnc2C#N)C(C(=O)NC2CCCCC2)c2cccnc2)cc1 (stereo not shown) [Compound 122, N-(4-tert-butylphenyl)-4-cyano-N-[2-(cyclohexylamino)-2-oxo-1-(3-pyridyl)ethyl]-1,2,5-thiadiazole-3-carboxamide]",EC50,229E Mpro; read-out: 229E Mpro EC50,> 30 µM
CC(C)(C)c1ccc(N(C(=O)c2nsnc2C(N)=O)C(C(=O)NC2CCCCC2)c2cccnc2)cc1 (stereo not shown) [Compound 123a],IC50,[1],> 30 µM
same,EC50,229E Mpro; 229E Mpro EC50,> 30 µM
CC(C)(C)c1ccc(N(C(=O)c2nccnc2C(N)=O)C(C(=O)NC2CCCCC2)c2cccnc2)cc1 (stereo not shown) [Compound 124a],IC50,[1],> 30 µM
same,EC50,229E Mpro; 229E Mpro EC50,> 30 µM
CC(C)(C)OC(=O)N1CC(C(=O)N(c2ccc(C(C)(C)C)cc2)C(C(=O)NC2CCCCC2)c2cccnc2)C1 (stereo not shown) [Compound 126],IC50,[1],> 30 µM
same,EC50,229E Mpro; 229E Mpro EC50,> 30 µM
CC(C)(C)c1ccc(N(C(=O)C2CNC2)C(C(=O)NC2CCCCC2)c2cccnc2)cc1 (stereo not shown) [Compound 127],IC50,[1],> 30 µM
same,EC50,229E Mpro; 229E Mpro EC50,> 30 µM
CC(C)(C)OC(=O)N1CC(C)(C(=O)N(c2ccc(C(C)(C)C)cc2)C(C(=O)NC2CCCCC2)c2cccnc2)C1 (stereo not shown) [Compound 129],IC50,[1],> 30 µM
same,EC50,229E Mpro; 229E Mpro EC50,> 30 µM
CC1(C(=O)N(c2ccc(C(C)(C)C)cc2)C(C(=O)NC2CCCCC2)c2cccnc2)CNC1 (stereo not shown) [Compound 129a],IC50,[1],> 30 µM
same,EC50,229E Mpro; 229E Mpro EC50,> 30 µM
CC(C)(C)c1ccc(N(C(=O)[C@@H]2CCCN2C#N)C(C(=O)NC2CCCCC2)c2cccnc2)cc1 (stereo partly shown) [Compound 130c],IC50,[1],> 30 µM
same,EC50,229E Mpro; 229E Mpro EC50,> 30 µM
CC(C)(C)OC(=O)N1CCC[C@@H]1C(=O)N(c1ccc(C(C)(C)C)cc1)C(C(=O)NC1CCCCC1)c1cccnc1 (stereo partly shown) [Compound 131b],IC50,[1],> 30 µM
same,EC50,229E Mpro; read-out: 229E Mpro EC50,> 30 µM
CC(C)(C)c1ccc(N(C(=O)[C@@H]2CCCN2)C(C(=O)NC2CCCCC2)c2cccnc2)cc1 (stereo partly shown) [Compound 131d],IC50,[1],> 30 µM
same,EC50,229E Mpro; read-out: 229E Mpro EC50,> 30 µM
CC(C)(C)c1ccc(N(C(=O)[C@H]2N(C#N)CC2(C)C)C(C(=O)NC2CCCCC2)c2cccnc2)cc1 (stereo partly shown) [Compound 136a],IC50,[1],> 30 µM
same,EC50,229E Mpro; 229E Mpro EC50,> 30 µM
CC(C)(C)c1ccc(N(C(=O)[C@H]2NCC2(C)C)[C@H](C(=O)NC2CCCCC2)c2cccnc2)cc1 [Compound 136b],IC50,[1],> 30 µM
same,EC50,229E Mpro; 229E Mpro EC50,> 30 µM
CC(C)(C)c1ccc(N(C(=O)[C@H]2NCC2(C)C)[C@@H](C(=O)NC2CCCCC2)c2cccnc2)cc1 [Compound 136c],IC50,[1],> 30 µM
same,EC50,229E Mpro; 229E Mpro EC50,> 30 µM
NC(=O)c1nc(C2CC2)ccc1N(C(=O)c1cnc[nH]1)[C@@H](C(=O)NC1CCCCC1)c1cccnc1 [Compound 832],EC50,229E Mpro; read-out: 229E Mpro EC50,2 to 10 µM
NC(=O)c1nc(C2CC2)ccc1N(C(=O)c1cnc[nH]1)[C@H](C(=O)NC1CCCCC1)c1cccnc1 [Compound 833],IC50,[1],2 to 10 µM
same,EC50,229E Mpro; 229E Mpro EC50,2 to 10 µM
CC(C)(C)c1ccc(N(C(=O)[C@@H]2CCN2)[C@H](C(=O)NC2CCCCC2)c2cccnc2)cc1 [Compound 846],EC50,229E Mpro; read-out: 229E Mpro EC50,< 2 µM
"CC(C)(C)c1ccc(N(C(=O)c2scnc2C#N)C(C(=O)NC2CCCCC2)c2cccnc2)cc1 (stereo not shown) [Compound 899, N-(4-tert-butylphenyl)-4-cyano-N-[2-(cyclohexylamino)-2-oxo-1-(3-pyridyl)ethyl]thiazole-5-carboxamide]",IC50,[1],> 30 µM
CC(C)(C)c1ccc(N(C(=O)c2scnc2Cl)C(C(=O)NC2CCCCC2)c2cccnc2)cc1 (stereo not shown) [Compound 899a],IC50,[1],> 30 µM
